Test results reported in patent US20040072738A1, “Analogues of thiocoraline and be-22179” (priority 2000, published 2004).
Bridge positions count the residues as written; N and C are the ends. Square brackets hold non-standard residues; d marks the D form. Peptide text beside a SMILES is read from it. I, II: the chains in the order shown. * marks the point of attachment. Quinaldoyl(3-OH) = O=C(c1nc2ccccc2cc1O)*; NMeC = CN[C@@H](CS)C(=O)O

Tests used:
supercoiled ΦX174 DNA [1] = assay: unwinding and rewinding of negatively supercoiled DNA, agarose gel electrophoresis; format: biochemical
Source text: Confirmation that thiocoraline and BE-22179 bind to DNA with bisintercalation was derived from their ability to induce the unwinding of negatively supercoiled DNA. This was established by their ability to gradually decrease the agarose gel electrophoresis mobility of supercoiled ΦX174 DNA (unwinding) at increasing concentrations followed by a return to normal mobility (rewinding) at even higher concentrations. Under the conditions employed, echinomycin unwound ΦX174 DNA at a 0.044 agent/base pair ratio (FIG. 11 and FIG. 12). Thiocoraline completely unwound ΦX174 DNA at a higher 0.11 agent/base pair ratio, whereas BE-22179 required even higher concentrations producing the unwinding at an agent/base pair ratio of 1.1. […] Thus, the distinctions in 1 and 2 and echinomycin detected here appear to be related to the nature of the cyclic depsipeptide and not the structure of the chromophore.
FIG. 8 is a table of comparative DNA binding properties. ^aCalf thymus DNA, KB=apparent binding constant determined by fluorescence quenching. The value in paren-theses is the agent/base pair ratio at saturated high-affinity binding and may be considered a measure of the selectivity of binding. ^bAgent/base pair ratio required to unwind negatively supercoiled FX174 DNA (form I to form II gel mobility, 0.9% agarose gel). ^cAgent/base pair ratio required to induce complete rewinding or positive super-coiling of FX174 DNA (form II to form I gel mobility, 0.9% agarose gel). ^dBinding constant established by footprinting at a 5′-CCGC site (FIG. 9).
(A) Lane 1, untreated supercoiled FX174 DNA, 95% form 1 and 5% form II; lanes 2-8, thiocoraline-treated FX174 DNA; lanes 9-14, echinomycin-treated FX174 DNA. The [agent]-to-[base pair] ratios were 0.022 (lanes 2 and 9), 0.033 (lanes 3 and 10), 0.044 (lanes 4 and 11), 0.066 (lanes 5 and 12), 0.11 (lanes 6 and 13), 0.22 (lanes 7 and 14), and 0.44 (lane 8). (B) Lane 1, untreated supercoiled FX174 DNA, lanes 2-12, BE-22179-treated FX174 DNA. The [agent]-to-[base pair] ratios were 0.022, (lane 2), 0.033 (lane 3), 0.044 (lane 4), 0.066 (lane 5), 0.11 (lane 6), 0.22 (lane 7), and 0.33 (lane 8), 0.44 (lane 9), 0.66 (lane 10), 1.1 (lane 11), and 2.2 (lane 12). (C) Lane 1, untreated supercoiled FX174 DNA, 95% form 1 and 5% form II; lanes 2-8, thiocoraline analogue (27)-treated FX174 DNA. The [agent]-to-[base pair] ratios were 0.022 (lane 2), 0.033 (lane 3), 0.044 (lane 4), 0.066 (lane 5), 0.11 (lane 6), 0.22 (lane 7), and 0.44 (lane 8).

w794 DNA = assay: DNase I and MTE footprinting; format: binding
Experimental: FIG. 9 is an electrophoresis gel of DNase footprinting of echinomycin bound to w794 DNA. Lane 13, G, C and A Sanger sequencing reactions; lane 4, native DNA; lane 5, control DNA without treatment of DNase I; lanes 6-14; 0, 10, 20, 40, 60, 80, 100, 120, and […] echinomycin with DNase I treatment (1 min).
FIG. 10 is an electrophoresis gel of DNase footprinting of thiocoraline bound to w794 DNA. Lane 1, native DNA; lane 2, control DNA without treatment of DNase I; lanes 3-6, G, C, A, and T Sanger sequencing reactions; lanes 7-26; 0, 10, 25, 50, 75, 100, 150, 200, 250, 300, 350, 400, 450, 500, 600, 700, 800, 900, 1000, and […] thiocoraline with DNase I treatment (1 min).

supercoiled ΦX174 DNA [2] = assay: DNA cleavage assay, conversion of Form I to Form II or Form III; format: biochemical
Source text: Also examined was the ability of 1 or 2 to cleave, alkylate, or cross-link DNA. In particular, the electrophilic unsaturation found in BE-22179 might be expected to serve as an alkylation site for covalent attachment to DNA, especially following bisintercalation binding. […] These studies would detect both thermally labile and non thermally labile alkylation sites, but only those engaged in interstrand cross-linking. Given the C2 symmetric nature of 2, bisintercalation analogous to echinomycin and triostin A places the two electrophilic sites in positions to react only with the complementary strands of duplex DNA (interstrand DNA cross-linking) and would preclude intrastrand DNA cross-linking.

DNA topoisomerase I = target: T1, DNA topoisomerase I (Homo sapiens, UniProt P11387); settings: cited from earlier work
T1 sequence (P11387 1-765): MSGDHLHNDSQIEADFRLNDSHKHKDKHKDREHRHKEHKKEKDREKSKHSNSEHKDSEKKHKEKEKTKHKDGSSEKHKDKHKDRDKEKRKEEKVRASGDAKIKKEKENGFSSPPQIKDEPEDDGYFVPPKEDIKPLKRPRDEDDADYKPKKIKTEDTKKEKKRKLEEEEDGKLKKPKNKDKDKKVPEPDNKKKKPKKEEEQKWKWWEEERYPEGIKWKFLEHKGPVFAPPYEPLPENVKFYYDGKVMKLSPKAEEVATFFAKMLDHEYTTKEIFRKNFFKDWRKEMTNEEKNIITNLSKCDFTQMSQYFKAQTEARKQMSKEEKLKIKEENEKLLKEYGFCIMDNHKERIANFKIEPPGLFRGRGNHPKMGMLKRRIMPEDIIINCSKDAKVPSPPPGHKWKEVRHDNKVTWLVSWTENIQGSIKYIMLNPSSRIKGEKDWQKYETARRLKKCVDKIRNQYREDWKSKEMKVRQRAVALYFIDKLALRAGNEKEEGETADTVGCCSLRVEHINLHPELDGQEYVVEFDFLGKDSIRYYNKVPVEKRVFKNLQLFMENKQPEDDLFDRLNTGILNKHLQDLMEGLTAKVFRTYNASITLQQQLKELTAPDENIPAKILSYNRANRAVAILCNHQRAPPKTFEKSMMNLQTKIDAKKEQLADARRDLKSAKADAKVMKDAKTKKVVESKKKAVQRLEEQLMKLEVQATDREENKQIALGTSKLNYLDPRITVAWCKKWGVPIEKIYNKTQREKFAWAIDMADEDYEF

DNA topoisomerase II = settings: cited from earlier work
L1210 cell line = assay: cytotoxic activity in the L1210 assays; settings: read-out: IC50 cytotoxic activity; L1210 cell line

CSC[C@H]1C(=O)SC[C@@H](NC(=O)c2nc3ccccc3cc2O)C(=O)NCC(=O)N(C)[C@H]2CSSC[C@@H](C(=O)N1C)N(C)C(=O)CNC(=O)[C@H](NC(=O)c1nc3ccccc3cc1O)CSC(=O)[C@H](CSC)N(C)C2=O [Thiocoraline] (I: {Quinaldoyl(3-OH)}-[dC]G[NMeC][NMeC](Me) / II: {Quinaldoyl(3-OH)}-[dC]G[NMeC][NMeC](Me); thioester I:1-II:C, I:C-II:1; disulfide I:3-II:3)
agent/base pair ratio required to unwind supercoiled DNA (supercoiled ΦX174 DNA [1]; form I to form II gel mobility): 0.11 agent/base pair ratio
agent/base pair ratio for complete rewinding of supercoiled DNA (supercoiled ΦX174 DNA [1]; form II to form I gel mobility): 0.44 agent/base pair ratio
selectivity of DNA binding by footprinting (w794 DNA): failed to reveal a distinguishable selectivity
DNA cleavage (supercoiled ΦX174 DNA [2]): No evidence
inhibition of DNA topoisomerase I (DNA topoisomerase I): does not inhibit
inhibition of DNA topoisomerase II (DNA topoisomerase II): does not inhibit
IC50 (L1210 cell line): 0.2 nM
